Laboratory results taken from ChEMBL document CHEMBL6115002, “Discovery of novel sitolactone derivative leading to PANoptosis and differentiation of acute myeloid leukemia cells” (Eur J Med Chem, 2025).

Columns and labels:
Type in all cases: functional, cell-based
[1] = Antiproliferative activity against mouse WEHI-3 cells assessed as inhibition cell proliferation incubated for 72 hrs by MTT assay; settings: WEHI-3, 72 h
[2] = tested on: MV4-11; experiment: Antiproliferative activity against human MV4-11 cells assessed as inhibition cell proliferation incubated for 72 hrs by MTT assay; settings: MV4-11, 72 h
[3] = tested on: Kasumi 1; experiment: Antiproliferative activity against human Kasumi 1 cells assessed as inhibition cell proliferation incubated for 72 hrs by MTT assay; settings: Kasumi 1, 72 h

| Structure (SMILES) | IC50 [2] [µM] | IC50 [1] [µM] | IC50 [3] [µM] |
| --- | --- | --- | --- |
| C=C1C[C@@H]2[C@@H](CC[C@]3(C)[C@@H](OC(=O)c4ccc(-c5ccccc5)cc4)CC[C@@H]23)OC1=O | 20 | 14.3 | 18.1 |
| C=C1C[C@@H]2[C@@H](CC[C@]3(C)[C@@H](OS(=O)(=O)c4ccc(OC)cc4)CC[C@@H]23)OC1=O | 14.6 | 9.29 | 8.36 |
| C#CCCCC(=O)O[C@H]1CC[C@H]2[C@@H]3CC(=C)C(=O)O[C@@H]3CC[C@]12C | > 20 | > 20 | > 20 |
| C=C1C[C@@H]2[C@@H](CC[C@]3(C)[C@@H](OS(=O)(=O)c4cccnc4)CC[C@@H]23)OC1=O | > 20 | 13.3 | 10.9 |
| C=C1C[C@@H]2[C@@H](CC[C@]3(C)[C@@H](O[Si](C)(C)C(C)C)CC[C@@H]23)OC1=O | > 20 | > 20 | > 20 |
| C=C1C[C@@H]2[C@@H](CC[C@]3(C)[C@@H](OC(c4ccccc4)c4ccccc4)CC[C@@H]23)OC1=O | 4.66 | 3.58 | 2.89 |
| C=C1C[C@@H]2[C@@H](CC[C@]3(C)[C@@H](OS(=O)(=O)CCCCCCC)CC[C@@H]23)OC1=O | > 20 | > 20 | > 20 |
| C=C1C[C@@H]2[C@@H](CC[C@]3(C)[C@@H](O[Si](CC)(CC)CC)CC[C@@H]23)OC1=O | 4.53 | 2.14 | 2.97 |
| C=C1C[C@@H]2[C@@H](CC[C@]3(C)[C@@H](OC(C)(C)C)CC[C@@H]23)OC1=O | 11.7 | 7.17 | 8.98 |
| C=C1C[C@@H]2[C@@H](CC[C@]3(C)[C@@H](O[Si](c4ccccc4)(c4ccccc4)c4ccccc4)CC[C@@H]23)OC1=O | 5.32 | 4.61 | 5.86 |
| C=C1C[C@@H]2[C@@H](CC[C@]3(C)[C@@H](O)CC[C@@H]23)OC1=O | > 20 | 12.6 | > 20 |
| C=C1C[C@@H]2[C@@H](CC[C@]3(C)[C@@H](O[Si](c4ccccc4)(c4ccccc4)C(C)(C)C)CC[C@@H]23)OC1=O | 3.89 | 1.37 | 1.51 |
| C=C1C[C@@H]2[C@@H](CC[C@]3(C)[C@@H](OC(=O)C4CC4)CC[C@@H]23)OC1=O | > 20 | > 20 | > 20 |
| C=C1C[C@@H]2[C@@H](CC[C@]3(C)[C@@H](OC(=O)C4CCCC4)CC[C@@H]23)OC1=O | > 20 | 15.3 | > 20 |
| C=C1C[C@@H]2[C@@H](CC[C@]3(C)[C@@H](OS(=O)(=O)CCN4C(=O)c5ccccc5C4=O)CC[C@@H]23)OC1=O | 15.4 | 9.17 | 7.82 |
| C=C1C[C@@H]2[C@@H](CC[C@]3(C)[C@@H](OS(=O)(=O)Cc4ccccc4)CC[C@@H]23)OC1=O | > 20 | 18.6 | 15.3 |
| C=C1C[C@@H]2[C@@H](CC[C@]3(C)[C@@H](OC(=O)c4ccc(F)cc4)CC[C@@H]23)OC1=O | 13.4 | 6.27 | 10.4 |
| C=C1C[C@@H]2[C@@H](CC[C@]3(C)[C@@H](OS(=O)(=O)C[C@]45CC[C@](C)(C(=O)C4)C5(C)C)CC[C@@H]23)OC1=O | 12.3 | 8.29 | 9.8 |
| C=C1C[C@@H]2[C@@H](CC[C@]3(C)[C@@H](OS(=O)(=O)c4c(C)noc4C)CC[C@@H]23)OC1=O | 15.9 | 13.3 | 14.3 |

Further lines, with some results ahead:

| IC50 [2] [µM] | Structure (SMILES) | IC50 [1] [µM] | IC50 [3] [µM] |
| --- | --- | --- | --- |
| 8.36 | C=C1C[C@@H]2[C@@H](CC[C@]3(C)[C@@H](O[Si](C)(C)C(C)(C)C)CC[C@@H]23)OC1=O | 2.36 | 3.72 |
| 16.6 | C=C1C[C@@H]2[C@@H](CC[C@]3(C)[C@@H](OC(=O)c4ccccn4)CC[C@@H]23)OC1=O | 8.85 | 13.7 |
| > 20 | C=C1C[C@@H]2[C@@H](CC[C@]3(C)[C@@H](OS(=O)(=O)c4ccsc4C(=O)OC)CC[C@@H]23)OC1=O | 18 | > 20 |
| 16 | C=C1C[C@@H]2[C@@H](CC[C@]3(C)[C@@H](OC(=O)c4ccccc4)CC[C@@H]23)OC1=O | 10.3 | 18.8 |
| 14.2 | C=C1C[C@@H]2[C@@H](CC[C@]3(C)[C@@H](OC(=O)c4ccc(C(F)(F)F)cn4)CC[C@@H]23)OC1=O | 8.21 | 15.3 |
| > 20 | C=C1C[C@@H]2[C@@H](CC[C@]3(C)[C@@H](OC(=O)c4ccc(OC)cc4)CC[C@@H]23)OC1=O | 9.43 | 15.4 |
| 16.6 | C=C1C[C@@H]2[C@@H](CC[C@]3(C)[C@@H](OC(=O)c4ccc(C(F)(F)F)cc4)CC[C@@H]23)OC1=O | 10.2 | 9.97 |
| > 100 | C[C@]12CC[C@H]3OC(=O)CC[C@H]3[C@@H]1CCC2=O | > 100 | > 100 |
| > 20 | C=C1C[C@@H]2[C@@H](CC[C@]3(C)[C@@H](O[Si](C)(C)C)CC[C@@H]23)OC1=O | 14.2 | 16.3 |
| 2.17 | C=C1C[C@@H]2[C@@H](CC[C@]3(C)[C@@H](O[Si](CCC)(CCC)CCC)CC[C@@H]23)OC1=O | 1.46 | 1.29 |
| > 20 | CC(C)[Si](O[C@H]1CC[C@H]2[C@@H]3CCC(=O)O[C@@H]3CC[C@]12C)(C(C)C)C(C)C | > 20 | > 20 |
| > 20 | C=C1C[C@@H]2[C@@H](CC[C@]3(C)[C@@H](O[Si](C)(C)CCCCl)CC[C@@H]23)OC1=O | > 20 | > 20 |
| 9.13 | C=C1C[C@@H]2[C@@H](CC[C@]3(C)[C@@H](OS(=O)(=O)c4ccc(C#N)cc4)CC[C@@H]23)OC1=O | 7.62 | 8.92 |
| > 20 | C=C[Si](C)(O[C@H]1CC[C@H]2[C@@H]3CC(=C)C(=O)O[C@@H]3CC[C@]12C)c1ccccc1 (some centres undefined) | 15.4 | 16.3 |
| 16.4 | C=C1C[C@@H]2[C@@H](CC[C@]3(C)[C@@H](OC(=O)c4ccc(CC)cc4)CC[C@@H]23)OC1=O | 6.73 | 10.3 |
| > 20 | C=C1C[C@@H]2[C@@H](CC[C@]3(C)[C@@H](O[Si](OCC)(OCC)OCC)CC[C@@H]23)OC1=O | > 20 | > 20 |
| 10.4 | C=C1C[C@@H]2[C@@H](CC[C@]3(C)[C@@H](O[Si](C)(C)C4CCCCC4)CC[C@@H]23)OC1=O | 7.96 | 9.25 |
| 9.46 | C=C1C[C@@H]2[C@@H](CC[C@]3(C)[C@@H](OS(=O)(=O)c4ccc(C)cc4)CC[C@@H]23)OC1=O | 9.28 | 8.25 |
| > 20 | C=C1C[C@@H]2[C@@H](CC[C@]3(C)[C@@H](OS(=O)(=O)CCC)CC[C@@H]23)OC1=O | > 20 | > 20 |
